Drawing on patent publication US8389557B2, “Triazole derivatives useful as Axl inhibitors” (Rigel Pharmaceuticals, Inc., priority 2005, dated 2013), this text covers IC50 for 32 compounds.

What is called pIC50 is the IC50 on a negative log10 scale, so that one unit is a factor of ten. A high value points to a small IC50.

SMILES strings stand for the structures. pIC50: −log10 of the molar value. Bounds are passed on as bounds.

One test concerns the target T1, Axl (Homo sapiens, UniProt P30530).
T1 construct: endogenous in cells; host or cells: HeLa cells
T1 sequence (P30530 26-894): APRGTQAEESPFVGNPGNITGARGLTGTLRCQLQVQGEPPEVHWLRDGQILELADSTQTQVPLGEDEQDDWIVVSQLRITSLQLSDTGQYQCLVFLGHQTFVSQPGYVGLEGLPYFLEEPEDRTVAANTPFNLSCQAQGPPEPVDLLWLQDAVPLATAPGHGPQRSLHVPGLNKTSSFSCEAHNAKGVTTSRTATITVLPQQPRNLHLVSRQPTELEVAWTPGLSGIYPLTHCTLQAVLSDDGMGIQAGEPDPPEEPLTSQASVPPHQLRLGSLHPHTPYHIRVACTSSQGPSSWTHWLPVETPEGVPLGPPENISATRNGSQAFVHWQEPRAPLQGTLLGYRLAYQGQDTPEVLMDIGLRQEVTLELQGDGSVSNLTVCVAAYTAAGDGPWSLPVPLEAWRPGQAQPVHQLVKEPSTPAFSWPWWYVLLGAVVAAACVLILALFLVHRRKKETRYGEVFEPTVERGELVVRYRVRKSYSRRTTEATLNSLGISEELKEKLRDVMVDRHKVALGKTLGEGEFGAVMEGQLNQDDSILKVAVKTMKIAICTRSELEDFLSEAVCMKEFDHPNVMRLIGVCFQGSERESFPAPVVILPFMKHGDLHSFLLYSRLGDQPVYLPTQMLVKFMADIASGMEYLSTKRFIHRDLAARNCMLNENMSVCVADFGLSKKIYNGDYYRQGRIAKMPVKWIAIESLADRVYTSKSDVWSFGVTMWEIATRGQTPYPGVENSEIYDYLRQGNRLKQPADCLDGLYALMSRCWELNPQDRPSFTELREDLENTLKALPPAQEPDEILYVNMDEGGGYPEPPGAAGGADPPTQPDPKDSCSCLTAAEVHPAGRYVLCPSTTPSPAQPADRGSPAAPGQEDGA
Nature of the test: Phospho-Akt in-cell Western assay (inhibition of Axl activity). The format is cell-based. As to conditions: Table 2; Hela cells, Axl antibody cross-linking stimulation, phospho-Akt chemiluminescence. In a few lines: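 HeLa cells on poly-L-lysine, starved 24 h in 0.5% FCS DMEM with Axl/Fc 500 ng/mL, pre-treated with compound 1 h at 37° C. Axl stimulated 5 min by anti-Axl/anti-mouse antibody cross-linking. Fixed cells probed with anti-phospho-Akt and HRP secondary, chemiluminescence read.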
Turning to `Nc1nc(Nc2ccc3c(c2)OCCO3)n(C(=O)c2cccc(OCc3ccccc3)c2)n1` [compound 155, 3-amino-1-(3-(benzyloxy)phenyl)carbonyl-5-(1,4-benzodioxan-6-yl)amino-1H-1,2,4-triazole], the pIC50 is less than 4.70.

The same test, now with this note: Table 5; Hela cells, Axl antibody cross-linking stimulation, phospho-Akt chemiluminescence.
As for `Cc1cccc(C(=O)n2nc(Nc3ccc4oc(COC5CCCCO5)cc4c3)nc2N)c1` (centres unmarked) [compound 130, 5-amino-3-[N-(2-(tetrahydropyran-2-yloxy)methylbenzofuran-5-yl)-amino]-1-(3-(methyl)phenyl)carbonyl-1H-1,2,4-triazole], the pIC50 was 5.00 to 6.00.
For the compound `Cc1cccc(C(=O)n2nc(Nc3ccc4oc(CO)cc4c3)nc2N)c1` [compound 136, 5-amino-3-(2-(hydroxymethyl)benzofuran-5-yl)amino-1-(3-(methyl)phenyl)carbonyl-1H-1,2,4-triazole], the pIC50 was 5.00 to 6.00.
On the same count and under the same terms, with `Cc1cccc(C(=O)n2nc(Nc3ccc4[nH]ncc4c3)nc2N)c1` [compound 154, 5-amino-3-(indazol-5-yl)amino-1-(3-(methyl)phenyl)carbonyl-1H-1,2,4-triazole] the figure was 5.00 to 6.00; with `Cc1cccc(C(=O)n2nc(Nc3ccc4cn[nH]c4c3)nc2N)c1` [compound 160, 5-amino-3-(indazol-6-yl)amino-1-(3-(methyl)phenyl)carbonyl-1H-1,2,4-triazole], 5.00 to 6.00.

The test is the same for the next values; noted with them: inhibition of Axl activity, Table 1.
Compound `COC(=O)COc1ccc(C(=O)n2nc(Nc3ccc4c(c3)OCCO4)nc2N)cc1` [compound 126, 5-amino-3-(1,4-benzodioxan-6-yl)amino-1-[4-(methoxycarbonylmethoxy)phenyl)carbonyl-1H-1,2,4-triazole] had a pIC50 of 5.00 to 6.00.
Still for that read-out and setting: with `Nc1nc(Nc2ccc3c(c2)OCCO3)nn1C(=O)c1cccc(OC2CCCC2)c1` [compound 127, 5-amino-1-(3-(cyclopentoxy)phenyl)carbonyl-3-(1,4-benzodioxan-6-yl)amino-1H-1,2,4-triazole] the figure was 5.00 to 6.00; with `CCOc1cccc(C(=O)n2nc(Nc3ccc4c(c3)OCCO4)nc2N)c1` [compound 128, 5-amino-1-(3-(ethoxy)phenyl)carbonyl-3-(1,4-benzodioxan-6-yl)amino-1H-1,2,4-triazole], less than 4.70.
`Cc1ccc(C(=O)n2nc(Nc3ccccc3F)nc2N)cc1` [compound 129, 5-amino-3-[2-(fluoro)phenylamino]-1-(4-(methyl)phenyl)carbonyl-1H-1,2,4-triazole] showed a pIC50 of less than 4.70.
Still for that read-out and setting: with `Cc1ccc(Nc2nc(N)n(C(=O)c3ccc(C)cc3)n2)cc1` [compound 131, 5-amino-3-[4-(methyl)phenylamino]-1-(4-(methyl)phenyl)carbonyl-1H-1,2,4-triazole] the figure was less than 4.70; with `COc1ccc(Nc2nc(N)n(C(=O)c3ccc(C)cc3)n2)cc1` [compound 132, 5-amino-3-[4-(methoxy)phenylamino]-1-(4-(methyl)phenyl)carbonyl-1H-1,2,4-triazole], 5.00 to 6.00.
On the same count and under the same terms, with `Cc1ccc(C(=O)n2nc(Nc3cccc(C)c3)nc2N)cc1` [compound 133, 5-amino-3-[3-(methyl)phenylamino]-1-(4-(methyl)phenyl)carbonyl-1H-1,2,4-triazole] the figure was 5.00 to 6.00; with `COc1cccc(Nc2nc(N)n(C(=O)c3ccc(C)cc3)n2)c1` [compound 134, 5-amino-3-[3-(methoxy)phenylamino]-1-(4-(methyl)phenyl)carbonyl-1H-1,2,4-triazole], 5.00 to 6.00; with `COC(=O)COc1cccc(Nc2nc(N)n(C(=O)c3ccc(OC(C)C)cc3)n2)c1` [compound 135, 5-amino-1-(4-(iso-propoxy)phenyl)carbonyl-3-[3-(methoxycarbonylmethoxy)phenylamino]-1H-1,2,4-triazole], 5.00 to 6.00.
The same measure, in the same setting: with `Cc1ccc(C(=O)n2nc(Nc3ccccc3)nc2N)cc1` [compound 137, 5-amino-1-(4-(methyl)phenyl)carbonyl-3-phenylamino-1H-1,2,4-triazole] the figure was less than 4.70; with `COC(=O)COc1cccc(C(=O)n2nc(Nc3ccc4c(c3)OCCO4)nc2N)c1` [compound 138, 5-amino-3-(1,4-benzodioxan-6-yl)amino-1-[3-(methoxycarbonylmethoxy)phenyl)carbonyl-1H-1,2,4-triazole], 5.00 to 6.00.
With `CC(C)Oc1ccc(C(=O)n2nc(Nc3cccc(OCC(F)(F)F)c3)nc2N)cc1` [compound 139, 5-amino-1-(4-(iso-propoxy)phenyl)carbonyl-3-[3-(2,2,2-trifluoroethoxy)phenylamino]-1H-1,2,4-triazole], the negative-log IC50 (pIC50) is less than 4.70.
Same read-out and setting: with `Nc1nc(Nc2ccc3c(c2)OCCO3)nn1C(=O)c1ccc(OCc2ccccc2)cc1` [compound 142, 5-amino-1-(4-(benzyloxy)phenyl)carbonyl-3-(1,4-benzodioxan-6-yl)amino-1H-1,2,4-triazole] the figure was 5.00 to 6.00; with `COc1ccccc1Nc1nc(N)n(C(=O)c2ccc(C)cc2)n1` [compound 143, 5-amino-3-[2-(methoxy)phenylamino]-1-(4-(methyl)phenyl)carbonyl-1H-1,2,4-triazole], less than 4.70; with `Cc1ccc(C(=O)n2nc(Nc3ccccc3C)nc2N)cc1` [compound 144, 5-amino-3-[2-(methyl)phenylamino]-1-(4-(methyl)phenyl)carbonyl-1H-1,2,4-triazole], less than 4.70.
The same measure, in the same setting: with `CNC(=O)COc1cccc(Nc2nc(N)n(C(=O)c3cccc(C)c3)n2)c1` [compound 146, 5-amino-3-[3-(methylaminocarbonylmethoxy)phenylamino]-1-(3-(methyl)phenyl)carbonyl-1H-1,2,4-triazole] the figure was 5.00 to 6.00; with `COC(=O)COc1cccc(Nc2nc(N)n(C(=O)c3cccc(C)c3)n2)c1` [compound 147, 5-amino-3-[3-(methoxycarbonylmethoxy)phenylamino]-1-(3-(methyl)phenyl)carbonyl-1H-1,2,4-triazole], 5.00 to 6.00; with `Cc1cccc(C(=O)n2nc(Nc3cccc(OCC(=O)NCC4COC(C)(C)O4)c3)nc2N)c1` (centres unmarked) [compound 148], 5.00 to 6.00.
Same read-out and setting: with `Nc1nc(Nc2ccc3c(c2)OCCO3)nn1C(=O)c1ccc(OCCN2CCOCC2)cc1` [compound 149, 5-amino-3-(1,4-benzodioxan-6-yl)amino-1-[4-[2-(morpholin-4-yl)ethoxy]phenyl]carbonyl-1H-1,2,4-triazole] the figure was 5.00 to 6.00; with `Nc1nc(Nc2ccc3c(c2)OCCO3)nn1C(=O)c1cccc(OCCN2CCOCC2)c1` [compound 150, 5-amino-3-(1,4-benzodioxan-6-yl)amino-1-[3-[2-(morpholin-4-yl)ethoxy]phenyl]carbonyl-1H-1,2,4-triazole], less than 4.70.
For the compound `CC(C)Oc1ccc(C(=O)n2nc(Nc3ccc(OC4CCCC4)cc3)nc2N)cc1` [compound 151, 5-amino-3-[4-(cyclopentoxy)phenylamino]-1-(4-(iso-propoxy)phenyl)carbonyl-1H-1,2,4-triazole], the pIC50 is less than 4.70.
For the compound `CC(C)Oc1ccc(C(=O)n2nc(Nc3ccc(OCC(F)(F)F)cc3)nc2N)cc1` [compound 152, 5-amino-1-(4-(iso-propoxy)phenyl)carbonyl-3-[4-(2,2,2-trifluoroethoxy)phenylamino]-1H-1,2,4-triazole], the pIC50 was less than 4.70.
The compound `Cc1cccc(C(=O)n2nc(Nc3cccc(OCC(=O)NCC(O)CO)c3)nc2N)c1` (centres unmarked) [compound 153, 5-amino-3-[3-(N-(2,3-dihydroxypropyl)amino)carbonylmethoxy]-phenylamino-1-(3-(methyl)phenyl)carbonyl-1H-1,2,4-triazole] gave a pIC50 of 5.00 to 6.00.
Compound `Nc1nc(Nc2ccc3c(c2)OCCO3)nn1C(=O)c1cccc(OCc2ccccc2)c1` [compound 156, 5-amino-1-(3-(benzyloxy)phenyl)carbonyl-3-(1,4-benzodioxan-6-yl)amino-1H-1,2,4-triazole] had a negative logarithm of the IC50 (pIC50) of 4.70 to 5.00.
On the same count and under the same terms, with `COC(=O)COc1ccc(Nc2nc(N)n(C(=O)c3ccc(OC(C)C)cc3)n2)cc1` [compound 157, 5-amino-1-(4-(iso-propoxy)phenyl)carbonyl-3-[4-(methoxycarbonylmethoxy)phenylamino]-1H-1,2,4-triazole] the figure was 5.00 to 6.00.
Same read-out and setting: with `CC(C)Oc1ccc(C(=O)n2nc(Nc3ccc(OCCC4OCCO4)cc3)nc2N)cc1` [compound 158, 5-amino-3-[4-[2-(1,3-dioxolan-2-yl)ethoxy]phenylamino]-1-(4-(iso-propoxy)phenyl)carbonyl-1H-1,2,4-triazole] the figure was 5.00 to 6.00; with `CC(C)Oc1ccc(C(=O)n2nc(Nc3ccc(OCCN4CCOCC4)cc3)nc2N)cc1` [compound 159], more than 6.00.
